Results reported in patent US12377110B2, “Fospropofol methods and compositions” (Epalex Corporation, priority 2019, dated 2025).

System: adult women and men experiencing moderate to severe migraine headache
Assay: Study A17: safety-tolerability (TEAEs)
Conditions: N = 18, 800 mg oral
Procedure: The study is planned to complete approximately 85 subjects. • Enrolled subjects will be asked to come to the study site for treatment when they experience a qualifying migraine headache. Dosing must occur within 4 hours after onset of the migraine symptoms. If treatment at the study site is not feasible or practicable within 4 hours after onset of migraine symptoms, subjects should use their usual medication for that headache and attempt to visit the clinic for treatment as soon as possible (within 4 hours) after onset of their next migraine headache. Dosing must occur within 60 days after enrollment (see Post-enrollment Period below). • At clinic check-in for treatment, study personnel will verify eligibility for closing regarding the criteria for a qualifying headache and adherence to post-enrollment study restrictions (see Eligibility for Dosing below). • Treatment will consist of a single oral dose of fospropofol disodium. […] Because the prevalence of migraine headaches is higher in women than in men, efforts will be made to enroll at least 50% women. • Subjects must meet the general inclusion and exclusion criteria listed below (Inclusion Criteria and Exclusion Criteria) at screening to be enrolled in the study. To be eligible for fospropofol disodium treatment after onset of a migraine headache, enrolled subjects must meet criteria specific to the presenting headache at clinic check-in (see Qualifying Headache below) and adhere to study restrictions specific to the period between enrollment and clinic check-in (see Post-enrollment Restrictions below). • Inclusion Criteria Subjects must meet all of the following criteria at screening to be enrolled in the study: • 1. Written informed consent approved by the Institutional Review Board (IRB) given before any study-related procedures are performed • 2. […] Complete abstinence alone can be used as a method of contraception. • 6. […] Able to comprehend the nature of the study, capable of giving written informed consent, and able to communicate effectively with clinic staff (as assessed by the investigator) • 8. Available to volunteer for the entire study duration and willing to adhere to all protocol requirements, including the post-enrollment restrictions (see Post-enrollment Restrictions below) • 9. Agrees not to post any information related to the study on any website or social media site (e.g., Facebook, Twitter, LinkedIn, Google+, etc.) until the entire trial has been completed • 10. Willing to forgo rescue medicine for at least 2 hours after initiation of treatment with study drug (see In-Clinic Rescue Medicine) • Exclusion Criteria Subjects to whom any of the following criteria apply at screening will be excluded: • 1. History of hemiplegic migraine (at any time in the past). • 2. History of headaches of any type occurring on ≥15 days/month during any of the 3 months prior to screening. • 3.

CC(C)c1cccc(C(C)C)c1OCOP(=O)([O-])O.[Na+] [fospropofol disodium]
9: Number of TEAEs, E
16.7%: Nervous system disorders: subjects with TEAE, %
33.3%: Subjects with at least 1 TEAE, %
7: Relation of TEAEs to study drug: Number of TEAEs, E (Probably related)
11.1%: Gastrointestinal disorders: subjects with TEAE, % | Paraesthesia: subjects with TEAE, %
1: Dry mouth: number of TEAEs, E | Dysgeusia: number of TEAEs, E | Nausea: number of TEAEs, E | Pruritus: number of TEAEs, E | Skin and subcutaneous tissue disorders: number of TEAEs, E | Somnolence: number of TEAEs, E | Relation of TEAEs to study drug: Gastrointestinal disorders (Possibly related) | Relation of TEAEs to study drug: Nausea (Possibly related) | Relation of TEAEs to study drug: Pruritus (Possibly related) | Relation of TEAEs to study drug: Skin and subcutaneous tissue disorders (Possibly related) | Relation of TEAEs to study drug: Dry mouth (Probably related) | Relation of TEAEs to study drug: Dysgeusia (Probably related) | Relation of TEAEs to study drug: Gastrointestinal disorders (Probably related) | Relation of TEAEs to study drug: Somnolence (Probably related) | Number of TEAEs, E, by severity (Severe)
1^1: Number of subjects with at least 1 TEAE, by severity (Severe)
0: Relation of TEAEs to study drug: Dry mouth (Possibly related) | Relation of TEAEs to study drug: Dysgeusia (Possibly related) | Relation of TEAEs to study drug: Genital paraesthesia (Possibly related) | Relation of TEAEs to study drug: Nervous system disorders (Possibly related) | Relation of TEAEs to study drug: Paraesthesia (Possibly related) | Relation of TEAEs to study drug: Reproductive system and breast disorders (Possibly related) | Relation of TEAEs to study drug: Somnolence (Possibly related) | Relation of TEAEs to study drug: Pruritus (Probably related) | Relation of TEAEs to study drug: Skin and subcutaneous tissue disorders (Probably related)
2: Gastrointestinal disorders: number of TEAEs, E | Genital paraesthesia: number of TEAEs, E | Paraesthesia: number of TEAEs, E | Reproductive system and breast disorders: number of TEAEs, E | Relation of TEAEs to study drug: Number of TEAEs, E (Possibly related) | Relation of TEAEs to study drug: Genital paraesthesia (Probably related) | Relation of TEAEs to study drug: Paraesthesia (Probably related) | Relation of TEAEs to study drug: Reproductive system and breast disorders (Probably related)
5.6%: Dysgeusia: subjects with TEAE, % | Genital paraesthesia: subjects with TEAE, % | Pruritus: subjects with TEAE, % | Reproductive system and breast disorders: subjects with TEAE, % | Skin and subcutaneous tissue disorders: subjects with TEAE, % | Somnolence: subjects with TEAE, %
4: Nervous system disorders: number of TEAEs, E | Relation of TEAEs to study drug: Nervous system disorders (Probably related)
5: Number of TEAEs, E, by severity (Mild)
3: Number of subjects with at least 1 TEAE, by severity (Mild) | Number of TEAEs, E, by severity (Moderate)
3^1: Number of subjects with at least 1 TEAE, by severity (Moderate)
7.7%: Dry mouth: subjects with TEAE, % | Nausea: subjects with TEAE, %
